# Columns and labels:
# Assay in all cases: relative viability (nuclei count vs DMSO), 5 days (fraction); higher = more cells survive
# [1] = compound: CC(C)C[C@@H](C(=O)N[C@H](C(=O)OC1CCCC1)c1ccccc1)[C@H](O)C(=O)NO [Tosedostat] + Cc1nc(NC(=O)N2CCC[C@H]2C(N)=O)sc1-c1ccnc(C(C)(C)C(F)(F)F)c1 [Alpelisib] (partner 2 µM)
# In short: (§1)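 Relative viability was taken as the ratio of nuclei in treated wells to nuclei in vehicle wells. Lung cancer cell lines in 1536-well plates received compounds by pin tool one day after seeding, either one drug alone or a fixed anchor-drug dose plus five library-drug doses (not always all listed) in √10 steps. Nuclei were counted on 4× images after 5 days of treatment, and values are medians of duplicate plates.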
# [2] = compound: CC(C)C[C@@H](C(=O)N[C@H](C(=O)OC1CCCC1)c1ccccc1)[C@H](O)C(=O)NO [Tosedostat] + Cc1nc(Nc2ncc(C(=O)Nc3c(C)cccc3Cl)s2)cc(N2CCN(CCO)CC2)n1 [Dasatinib] (partner 0.075 µM)
# In short: as §1
# [3] = compound: CC1=NN=C(O1)C2=NN=C(C=C2)N3CCC(CC3)OC4=C(C=CC(=C4)F)Cl + COc1cc2c(Oc3ccc(NC(=O)C4(C(=O)Nc5ccc(F)cc5)CC4)cc3F)ccnc2cc1OCCCN1CCOCC1 [Foretinib] (partner 0.25 µM)
# In short: as §1
# [4] = compound: CC1=NN=C(O1)C2=NN=C(C=C2)N3CCC(CC3)OC4=C(C=CC(=C4)F)Cl + C[C@@H](Oc1cc(-c2cnn(C3CCNCC3)c2)cnc1N)c1c(Cl)ccc(F)c1Cl [Crizotinib] (partner 1 µM)
# In short: as §1
Cell Line,relative viability ([1]; first compound 0.02 µM),relative viability ([1]; first compound 0.06325 µM),relative viability ([1]; first compound 0.2 µM),relative viability ([1]; first compound 0.6325 µM),relative viability ([1]; first compound 2 µM),relative viability ([2]; first compound 0.02 µM),relative viability ([2]; first compound 0.06325 µM),relative viability ([2]; first compound 0.2 µM),relative viability ([2]; first compound 0.6325 µM),relative viability ([2]; first compound 2 µM),relative viability ([3]; first compound 0.253 µM),relative viability ([3]; first compound 0.8 µM),relative viability ([3]; first compound 2.53 µM),relative viability ([3]; first compound 8 µM),relative viability ([4]; first compound 0.253 µM),relative viability ([4]; first compound 0.8 µM),relative viability ([4]; first compound 2.53 µM),relative viability ([4]; first compound 8 µM)
201T,0.967,1.08,1.07,1.21,1.15,0.566,0.632,0.635,0.717,0.553,0.607,0.758,0.661,0.73,0.456,0.504,0.499,0.484
A549,0.753,0.714,0.683,0.709,0.526,,,,,,0.746,0.545,0.464,0.53,0.461,0.383,0.316,0.319
A-427,1.1,1.09,1.12,1.12,0.983,0.646,0.762,0.733,0.712,0.692,1.02,,0.998,0.871,0.826,,0.779,0.671
ABC-1,1.05,0.864,1.08,0.843,0.771,0.632,0.598,0.519,0.563,0.481,0.601,0.439,0.578,0.644,0.686,0.615,0.426,0.436
BEN,1.09,1.01,1.15,1.28,1.26,0.348,0.348,0.39,0.446,0.344,0.679,0.7,0.665,0.541,0.709,0.796,0.913,0.86
CAL-12T,1.28,1.14,1.3,0.988,0.872,0.316,0.489,0.472,0.381,0.217,0.965,0.964,0.879,0.777,0.552,0.602,0.728,0.506
COR-L23,0.871,0.727,0.746,0.694,0.655,0.546,0.469,0.495,0.381,0.332,0.901,0.836,0.869,0.672,0.527,0.586,0.433,0.435
COR-L 105,0.904,0.849,1.17,0.901,0.753,0.348,0.37,0.365,0.323,0.298,0.994,1.06,1.12,1.08,0.689,0.907,0.786,0.82
Calu-6,1.18,0.883,0.91,0.689,0.597,,,,,,0.602,0.597,0.517,0.573,0.485,0.469,0.483,0.465
ChaGo-K-1,,,,,,0.662,0.567,0.587,0.535,0.394,0.773,0.709,0.785,0.739,0.76,0.669,0.721,0.694
EBC-1,0.771,0.87,0.711,0.552,0.541,,,,,,0.0917,0.0957,0.103,0.0946,0.216,0.171,0.179,0.202
EKVX,0.868,0.86,0.835,0.838,0.87,0.586,0.565,0.548,0.588,0.512,0.41,0.382,0.382,0.36,0.369,0.313,0.311,0.393
EMC-BAC-2,0.722,0.725,0.73,0.737,0.682,0.317,0.356,0.343,0.371,0.311,0.968,0.95,0.89,0.98,0.583,0.648,0.632,0.545
EPLC-272H,0.777,0.999,0.719,0.747,0.505,0.363,0.353,0.316,0.299,0.177,0.713,0.604,0.638,0.637,0.877,,0.926,1.03
H3255,0.666,0.642,0.589,0.568,0.663,0.278,0.35,0.347,0.429,0.33,0.793,0.644,0.783,0.673,0.548,0.646,0.538,0.625
HARA,0.887,0.839,0.875,0.716,0.74,0.304,0.282,0.235,0.234,0.195,0.538,0.289,0.317,0.273,0.747,0.327,0.271,0.294
HCC-15,0.848,0.934,0.863,0.808,0.651,0.64,0.625,0.578,0.559,0.462,0.538,0.476,0.405,0.446,0.42,0.405,0.374,0.36
HCC-44,0.684,0.874,0.767,0.886,0.544,,,,,,,,,,0.451,0.392,0.431,0.373
HCC-78,0.294,0.338,0.257,0.336,0.454,0.317,0.439,0.37,0.374,0.493,0.465,0.51,0.467,0.516,0.294,0.297,0.288,0.311
HCC-366,0.331,0.357,0.376,0.382,0.342,0.723,0.594,0.665,0.556,0.646,0.46,0.574,0.466,0.343,0.289,0.284,0.256,0.272
HCC-827,0.826,0.934,1.02,0.842,0.875,0.308,0.34,0.301,0.377,0.288,0.381,0.239,0.353,0.318,0.331,0.224,0.326,0.308

Cell Line,relative viability ([1]; first compound 0.02 µM),relative viability ([1]; first compound 0.06325 µM),relative viability ([1]; first compound 0.2 µM),relative viability ([1]; first compound 0.6325 µM),relative viability ([1]; first compound 2 µM),relative viability ([2]; first compound 0.02 µM),relative viability ([2]; first compound 0.06325 µM),relative viability ([2]; first compound 0.2 µM),relative viability ([2]; first compound 0.6325 µM),relative viability ([2]; first compound 2 µM),relative viability ([3]; first compound 0.253 µM),relative viability ([3]; first compound 0.8 µM),relative viability ([3]; first compound 2.53 µM),relative viability ([3]; first compound 8 µM),relative viability ([4]; first compound 0.253 µM),relative viability ([4]; first compound 0.8 µM),relative viability ([4]; first compound 2.53 µM),relative viability ([4]; first compound 8 µM)
HOP-62,0.92,1.01,0.697,0.984,0.744,0.678,0.628,0.665,0.685,0.57,0.806,0.833,0.806,0.543,0.71,,0.784,0.575
IA-LM,0.735,0.845,0.714,0.656,0.617,,,,,,0.164,0.158,0.171,0.167,0.415,0.266,0.288,0.34
LC-2-ad,0.932,0.885,0.852,0.889,0.74,0.865,0.51,0.675,0.602,0.337,0.66,0.634,0.623,0.507,0.334,0.314,0.336,0.326
LCLC-97TM1,0.199,,,0.247,0.211,0.901,0.988,0.811,0.819,0.915,0.481,0.439,0.433,0.381,0.262,,0.442,0.327
LCLC-103H,0.896,0.95,0.948,1.11,1.07,0.49,0.523,0.503,0.366,0.341,0.579,0.596,0.494,0.582,0.819,0.746,0.723,0.746
LK-2,1.55,1.03,1.13,1.27,1.11,0.29,0.275,0.296,0.4,0.267,1.11,1.05,1.45,1.5,0.216,0.246,0.24,0.259
LOU-NH91,0.695,0.704,0.741,0.706,0.674,0.6,0.584,0.568,0.51,0.42,0.896,0.847,0.927,0.9,,0.654,0.703,0.749
LU99A,0.633,0.445,0.501,0.486,0.477,0.517,0.495,0.506,0.424,0.413,0.826,0.868,0.836,0.742,0.571,0.604,0.655,0.552
LXF-289,1.03,1.05,1.03,1.07,1.1,0.199,0.248,0.244,0.225,0.184,0.692,0.671,0.66,0.563,0.612,0.593,0.623,0.545
NCI-H23,0.615,0.745,0.536,0.513,0.538,0.785,0.817,0.741,0.662,0.455,0.981,,0.792,0.841,0.6,,0.454,0.441
NCI-H522,,,,,,0.901,0.982,0.858,0.843,0.945,,,,,,,,
NCI-H1299,1.13,1.02,1.03,1.03,0.906,,,,,,1.09,1.08,1.05,1.02,0.785,0.711,0.756,0.689
NCI-H1395,1.03,0.922,0.965,0.791,0.876,0.383,0.426,0.448,0.468,0.41,0.939,0.901,0.969,0.893,,,,
NCI-H1623,,,,,,0.585,0.542,0.607,0.552,0.601,0.717,0.669,0.771,0.781,,,,
NCI-H1650,,,,,,0.329,0.362,0.346,0.448,0.311,,0.928,0.998,0.852,,0.748,0.806,0.803
NCI-H1703,0.265,0.274,0.302,0.329,0.31,,,,,,,0.438,0.394,0.478,0.728,0.661,0.764,0.611
NCI-H1792,0.761,0.745,0.649,0.602,0.67,0.777,0.756,0.743,0.79,0.691,,,,,0.414,0.447,0.378,0.451
NCI-H1793,0.691,0.851,0.567,0.649,0.673,0.431,0.408,0.388,0.316,0.37,0.448,0.639,0.565,0.621,,,,
NCI-H2342,,,,,,0.306,0.367,0.321,0.275,0.295,0.671,0.627,0.684,0.545,,,,
SW 900,,,,,,0.54,0.485,0.714,0.875,0.416,,,0.822,0.73,,,,

# — the supplement of paper PMC10307832
